According to ChEMBL document CHEMBL1201862, “PubChem BioAssay data set” (2004):
Calls of active or inactive are those of the source.

Experiments:
[1] = Luminescence Cell-Based Dose Retest to Confirm Inhibitors of Cancer Stem Cells. [Related pubchem assays (depositor defined):AID2717, AID2721]; assay type: functional; details: Homo sapiens
[2] = target: Heat shock protein HSP 90-alpha (Homo sapiens, UniProt P07900); assay type: functional, organism-based
[3] = tested on: Streptococcus sp. 'group A'; assay: Streptococcus pyogenes SK(-)GAS viability under kanamycin – luminescence, BacTiterGlo, confirmation, counter-screen for streptokinase expression inhibitor project, dose response (AID 1900); assay type: functional, organism-based
[4] = tested on: BJ; assay: BJ-TERT fibroblast viability loss – cell-based, RAS-independent, luminescence, dose response (AID 1933); assay type: functional; details: Homo sapiens
[5] = target: T1, Streptokinase A (Streptococcus pyogenes serotype M1, UniProt P10520); assay: viability-normalized secreted streptokinase activity reduction – plasminogen activation absorbance, OD405, dose response (AID 1914); assay type: functional, Streptococcus pyogenes M1 GAS;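 note: secreted streptokinase activity via plasminogen activation per viability signal from cell pellet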
T1 sequence (P10520 whole entry): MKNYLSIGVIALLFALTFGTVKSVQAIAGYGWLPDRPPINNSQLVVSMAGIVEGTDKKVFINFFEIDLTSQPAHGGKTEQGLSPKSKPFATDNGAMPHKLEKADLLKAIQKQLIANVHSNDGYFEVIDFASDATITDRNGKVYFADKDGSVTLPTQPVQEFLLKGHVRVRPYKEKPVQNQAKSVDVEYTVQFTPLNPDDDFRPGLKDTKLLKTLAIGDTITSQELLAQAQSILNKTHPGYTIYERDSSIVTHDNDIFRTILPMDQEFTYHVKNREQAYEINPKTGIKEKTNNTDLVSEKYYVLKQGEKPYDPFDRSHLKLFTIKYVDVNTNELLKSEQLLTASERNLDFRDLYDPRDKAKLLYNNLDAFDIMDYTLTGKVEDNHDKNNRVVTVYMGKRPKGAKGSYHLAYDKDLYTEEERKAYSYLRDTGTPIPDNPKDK

[6] = tested on: BJ; assay: cells; assay type: functional, cell-based; details: Homo sapiens
[7] = tested on: BJ; assay: BJ-TERT-LT-ST fibroblast viability loss – cell-based, RAS-independent, luminescence, dose response (AID 1935); assay type: functional; details: Homo sapiens;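 note: BJ fibroblasts immortalized with TERT plus LT and ST oncogenes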
[8] = DRD fibroblast viability loss – cell-based, non-viral oncogenic, luminescence, dose response (AID 1934); assay type: functional; details: Homo sapiens
[9] = tested on: Streptococcus; assay: GAS UMAA2166 growth inhibition – luminescence, BacTiterGlo, counter-screen for streptokinase expression inhibitor project, dose response (AID 1915); assay type: functional, organism-based;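 note: potency for reduction of bacterial viability or growth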
[10] = tested on: INS1; assay: INS-1E survival protection against cytokine death – cell-based, luminescence, retest, dose response (AID 449756); assay type: functional; details: Rattus norvegicus;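 note: cell death triggered by IL-1 beta plus TNF-alpha plus IFN-gamma mixture; protective hits raise ATP signal compared with cytokine alone wells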
[11] = microbe, parasite or virus in culture; assay type: functional; details: Mycobacterium tuberculosis
[12] = cells; assay type: functional
[13] = target: T2, Replicative DNA helicase DnaB (Mycobacterium tuberculosis, UniProt P9WMR3); assay: DnaB intein splicing inhibitors, dose response, biochemical, cell-free fluorescence (AID 449749); assay type: functional
T2 sequence (P9WMR3 whole entry): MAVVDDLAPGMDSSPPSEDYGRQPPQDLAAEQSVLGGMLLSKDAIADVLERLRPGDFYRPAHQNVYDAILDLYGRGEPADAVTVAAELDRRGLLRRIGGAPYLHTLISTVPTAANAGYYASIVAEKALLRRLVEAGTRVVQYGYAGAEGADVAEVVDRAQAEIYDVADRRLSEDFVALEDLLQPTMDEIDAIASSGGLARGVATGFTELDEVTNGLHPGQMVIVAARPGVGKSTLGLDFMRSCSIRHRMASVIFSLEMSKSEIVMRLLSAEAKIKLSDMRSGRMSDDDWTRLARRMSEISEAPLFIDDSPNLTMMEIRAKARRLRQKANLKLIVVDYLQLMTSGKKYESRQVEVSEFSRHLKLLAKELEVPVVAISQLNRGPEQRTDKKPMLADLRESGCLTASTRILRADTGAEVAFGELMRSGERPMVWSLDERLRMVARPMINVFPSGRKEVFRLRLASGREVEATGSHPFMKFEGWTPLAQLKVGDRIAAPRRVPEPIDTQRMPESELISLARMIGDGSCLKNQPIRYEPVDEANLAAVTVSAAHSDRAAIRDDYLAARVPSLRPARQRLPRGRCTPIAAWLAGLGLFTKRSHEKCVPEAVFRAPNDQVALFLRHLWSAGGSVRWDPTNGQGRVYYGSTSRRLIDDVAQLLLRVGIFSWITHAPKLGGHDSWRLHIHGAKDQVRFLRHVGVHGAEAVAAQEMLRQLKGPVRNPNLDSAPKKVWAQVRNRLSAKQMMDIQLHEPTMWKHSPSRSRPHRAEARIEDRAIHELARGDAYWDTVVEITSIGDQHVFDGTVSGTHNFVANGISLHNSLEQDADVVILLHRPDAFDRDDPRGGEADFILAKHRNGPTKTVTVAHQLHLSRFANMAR

[14] = target: T3, Protein RecA (Mycobacterium tuberculosis, UniProt P9WHJ3); assay: Fluorescence Cell-Free Homogeneous Dose Retest to Identify Inhibitors of RecA-Intein Splicing Activity. [Related pubchem assays (depositor defined):AID2097, AID2223, AID489010, AID492950]; assay type: functional
T3 sequence (P9WHJ3 whole entry): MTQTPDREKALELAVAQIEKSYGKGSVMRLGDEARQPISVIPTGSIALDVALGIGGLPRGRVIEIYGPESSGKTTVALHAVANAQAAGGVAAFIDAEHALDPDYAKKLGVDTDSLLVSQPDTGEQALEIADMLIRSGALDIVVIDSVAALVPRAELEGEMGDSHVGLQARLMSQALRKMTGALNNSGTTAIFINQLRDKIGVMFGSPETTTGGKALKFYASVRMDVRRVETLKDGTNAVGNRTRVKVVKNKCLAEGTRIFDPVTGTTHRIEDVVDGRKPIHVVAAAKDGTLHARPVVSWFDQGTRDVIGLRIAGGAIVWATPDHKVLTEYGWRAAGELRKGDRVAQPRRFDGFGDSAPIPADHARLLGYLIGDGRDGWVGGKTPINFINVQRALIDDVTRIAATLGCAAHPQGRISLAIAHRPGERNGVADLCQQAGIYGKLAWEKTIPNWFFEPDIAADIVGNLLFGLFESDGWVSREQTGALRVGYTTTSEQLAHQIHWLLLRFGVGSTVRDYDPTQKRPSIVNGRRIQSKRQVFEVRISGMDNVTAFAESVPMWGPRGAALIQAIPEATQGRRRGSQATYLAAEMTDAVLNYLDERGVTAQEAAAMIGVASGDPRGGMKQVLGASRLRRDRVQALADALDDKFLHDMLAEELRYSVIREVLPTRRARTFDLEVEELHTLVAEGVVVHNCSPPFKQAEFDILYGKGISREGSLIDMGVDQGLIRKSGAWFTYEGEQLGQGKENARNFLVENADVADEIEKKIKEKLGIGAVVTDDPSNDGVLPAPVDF

[15] = target: Genome polyprotein (dengue virus type 2, UniProt P29990); assay: flavivirus cap methylation enzyme inhibition – biochemical, confirmation dose response, primary screen (AID 588689); assay type: functional
[16] = blockers of HIV-1 envelope-mediated cell-cell fusion – cherry-pick, dose response (AID 652057); assay type: functional, cell-based
[17] = blockers of HIV-1 ZM109 envelope-driven cell-cell fusion – HeLa effector, CEM target cells, luciferase, cherry-pick, dose response (AID 652058); assay type: functional, cell-based;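 note: luciferase signal from HIV-1 Env mediated cell-cell fusion of effector and target cells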
[18] = off-target signal loss in HeLa-CEM21 co-culture – HeLa F-luc CTL cells, cherry-picked, counter-screen for HIV-1 Env fusion inhibitor project, dose response (AID 652040); assay type: functional, cell-based;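 note: potency for signal decrease marking cytotoxic or nonspecific inhibition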
[19] = HIV-1 AD8 envelope cell-cell fusion blockers – cherry-pick, dose response (AID 652062); assay type: functional, cell-based;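 note: luciferase signal from cell-cell fusion driven by HIV-1 clade B AD8 Env; potency is for inhibitors of fusion seen as a drop in luminescence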
[20] = target: FAD-linked sulfhydryl oxidase ALR (Homo sapiens, UniProt P55789); assay: ALR-catalysed DTT oxidation blockers – biochemical, H2O2 detection, luminescence, cherry-pick, dose response (AID 493248)
[21] = intracellular Trypanosoma cruzi inhibitors in host cells – cell-based, plate reader, cherry-pick samples, set 3, dose response (AID 651818); assay type: functional;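 note: compounds incubated with infected cells for about four days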

Chain of Genome polyprotein (P29990 2492-3391 limits assumed): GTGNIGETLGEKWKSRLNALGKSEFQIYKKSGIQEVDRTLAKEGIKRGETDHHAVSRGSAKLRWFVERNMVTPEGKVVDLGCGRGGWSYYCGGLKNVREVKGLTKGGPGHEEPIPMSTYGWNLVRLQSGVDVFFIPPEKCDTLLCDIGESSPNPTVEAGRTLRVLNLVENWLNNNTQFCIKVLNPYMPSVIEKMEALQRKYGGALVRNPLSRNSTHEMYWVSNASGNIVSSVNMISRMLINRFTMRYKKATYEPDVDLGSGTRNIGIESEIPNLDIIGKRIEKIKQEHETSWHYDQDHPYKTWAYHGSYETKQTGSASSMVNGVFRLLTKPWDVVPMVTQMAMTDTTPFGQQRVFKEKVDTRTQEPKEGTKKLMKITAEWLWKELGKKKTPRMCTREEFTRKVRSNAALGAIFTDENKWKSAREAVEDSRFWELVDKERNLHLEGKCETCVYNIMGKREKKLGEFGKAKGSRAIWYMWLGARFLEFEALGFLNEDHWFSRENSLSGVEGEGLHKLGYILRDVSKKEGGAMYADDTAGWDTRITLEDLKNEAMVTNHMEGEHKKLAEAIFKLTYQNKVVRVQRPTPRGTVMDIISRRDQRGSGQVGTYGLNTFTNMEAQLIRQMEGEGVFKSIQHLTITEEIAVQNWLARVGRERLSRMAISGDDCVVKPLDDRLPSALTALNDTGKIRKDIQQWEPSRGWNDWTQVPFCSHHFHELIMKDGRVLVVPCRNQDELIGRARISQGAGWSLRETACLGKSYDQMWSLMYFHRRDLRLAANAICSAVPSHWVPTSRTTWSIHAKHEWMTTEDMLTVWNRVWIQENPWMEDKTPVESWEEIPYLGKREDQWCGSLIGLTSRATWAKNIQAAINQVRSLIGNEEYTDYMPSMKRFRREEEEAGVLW
Chain of FAD-linked sulfhydryl oxidase ALR (P55789 whole entry): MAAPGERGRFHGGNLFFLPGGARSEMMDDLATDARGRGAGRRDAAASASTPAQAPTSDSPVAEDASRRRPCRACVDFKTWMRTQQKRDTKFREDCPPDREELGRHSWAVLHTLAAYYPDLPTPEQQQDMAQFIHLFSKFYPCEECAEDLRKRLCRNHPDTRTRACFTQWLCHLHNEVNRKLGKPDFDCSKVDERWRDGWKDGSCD

## CC(C)(C)c1nn(-c2ccccc2)c2nc(O)c(C=O)cc12
[1]
  AC50: 6.32 µM (active)
[2]
  AC50: 1.68 µM (active)

## CCCCC(CC)CN1C(=O)/C(=C/c2ccncc2)SC1=S (centres undefined)
[3]
  EC50: 2.59 µM (active)
[4]
  EC50: > 150 µM (not active)
[5]
  EC50: > 150 µM (not active)
[6]
  EC50: > 150 µM (not active)
[7]
  EC50: > 150 µM (not active)
[8]
  EC50: > 150 µM (not active)
[9]
  EC50: 9.05 µM (active)
[1]
  AC50: 7.84 µM (active)
[10]
  AC50: 17.7 µM (active)

## Nc1c(N(CCC2=CCCCC2)C(=O)COc2ccc(F)cc2)c(=O)[nH]c(=O)n1Cc1ccccc1
[10]
  AC50: 4.49 µM (active)

## COCCCn1c(SCc2cccc(OC)c2)nc2cc(OC)c(OC)cc2c1=N
[11]
  CC50: > 40 µM (active)

## O=C1NC(=O)C(=Cc2ccc(Oc3ccc([N+](=O)[O-])cc3)cc2)C(=O)N1
[12]
  IC50: 43 µM (active)
[13]
  AC50: 29.5 µM (active)
[14]
  EC50: > 380 µM (inactive)
[15]
  IC50: 34.5 µM (active)

## CCC(C)(C)NC(=O)C(c1ccccc1F)N(Cc1ccco1)C(=O)c1csnn1 (centres undefined)
[16]
  AC50: 5 µM (active)
[17]
  AC50: 22.6 µM (active)
[18]
  AC50: 7.86 µM (active)
[19]
  AC50: 36.2 µM (active)

## CCOC(=O)c1c(CSc2ccccc2)oc2cc(Br)c(O)c(CN(C)C)c12
[16]
  AC50: 0.907 µM (active)
[17]
  AC50: 1.58 µM (active)
[18]
  AC50: 1.38 µM (active)
[19]
  AC50: 2.46 µM (active)

## N=C(Cc1ccc(Cl)c(Cl)c1)NOC(=O)c1ccc(Br)o1
[2]
  AC50: 8.23 µM (active)

## CC(C(c1ccc2c(c1)OCO2)c1c(N)n(C)c(=O)n(C)c1=O)[N+](=O)[O-] (centres undefined)
[11]
  CC50: 36.3 µM (active)

## CCOC(=O)[C@H]1[C@H]2COc3ccccc3[C@@H]2N2C(=O)c3c(C)cc(C)cc3NC(=O)[C@@]12C
[16]
  AC50: 0.712 µM (active)
[17]
  AC50: 1.7 µM (active)
[18]
  AC50: 1.04 µM (active)
[19]
  AC50: 0.611 µM (active)

## CCc1ccc([C@H]2[C@@H]3C(=O)C[C@@H]4C(=O)N(Cc5ccccc5)C(=O)[C@@H]4[C@@H]3CN2S(=O)(=O)c2ccc(C)cc2)cc1
[16]
  AC50: 1.17 µM (active)
[17]
  AC50: 1.48 µM (active)
[18]
  AC50: 1.8 µM (active)
[19]
  AC50: 11.3 µM (active)

## Sc1nnc(-c2ccco2)n1/N=C/C(Cl)=C/c1ccccc1
[20]
  AC50: 0.798 µM (active)
[15]
  IC50: 62.7 µM (active)

## C[C@H]1CN([C@@H](C)CO)C(=O)Cc2cc(NC(=O)Nc3cccc4ccccc34)ccc2O[C@@H]1CN(C)Cc1ccc(Oc2ccccc2)cc1
[21]
  AC50: 3.12 µM (active)

## COc1ccc(S(=O)(=O)Nc2ccc3c(c2)CC(=O)N([C@H](C)CO)C[C@@H](C)[C@@H](CN(C)S(=O)(=O)c2ccc(OC)cc2)O3)cc1
[21]
  AC50: 3.98 µM (active)

## Cc1noc(C)c1S(=O)(=O)N(C)C[C@H]1Oc2c(NC(=O)c3ccc(-c4nccs4)cc3)cccc2C(=O)N([C@@H](C)CO)C[C@H]1C
[21]
  AC50: 5.82 µM (active)

## COc1cc(Br)cc(/C=N/NC(=O)c2ccccc2O)c1O
[21]
  AC50: 1.49 µM (active)

## C[C@H](CO)N1C[C@H](C)[C@H](CN(C)Cc2ccc(C(=O)Nc3ccccc3N)cc2)Oc2ccc(NC(=O)Nc3ccc(C(F)(F)F)cc3)cc2CC1=O
[21]
  AC50: 1.86 µM (active)

## C[C@H]1CN([C@@H](C)CO)C(=O)c2cccc(NC(=O)Nc3ccc(C(F)(F)F)cc3)c2O[C@H]1CN(C)Cc1ccc(C(F)(F)F)cc1
[21]
  AC50: 3.22 µM (active)

## C[C@H]1CN([C@@H](C)CO)C(=O)c2cccc(NC(=O)c3ccc(-c4nccs4)cc3)c2O[C@@H]1CN(C)Cc1ccc(C(=O)Nc2ccccc2N)cc1
[21]
  AC50: 2.92 µM (active)

## C[C@H]1CN([C@@H](C)CO)C(=O)Cc2cc(NS(=O)(=O)c3ccc(Cl)cc3)ccc2O[C@H]1CN(C)Cc1ccccc1
[21]
  AC50: 4.6 µM (active)

## CCN(C[C@H]1N[C@@](C)(C(=O)OC)[C@H]2C(=O)N(Cc3ccccc3)C(=O)[C@@H]12)C(=O)Nc1ccc(C)cc1
[16]
  AC50: 0.83 µM (active)
[17]
  AC50: 0.959 µM (active)
[18]
  AC50: 1.61 µM (active)
[19]
  AC50: 3.28 µM (active)
